Data on three compounds can be found in US4820694A, “Modifications of 3-O-demethylmycinose in macrocin and lactenocin” (priority 1986, dated 1989).

Common to all, as to format: cell-based
Assay [1] deals with Streptococcus pyogenes C203. Description: standard agar-dilution MIC assay. Conditions: Streptococcus pyogenes, C203. As to the method: (§1) The MIC's in Table III were determined by standard agar-dilution assays. The MIC's in Table IV were obtained using conventional brothdilution microtiter tests.
The test system of assay [2] is Staphylococcus aureus X1.1. Description: standard agar-dilution MIC assay. The following applies: Staphylococcus aureus, X1.1. Here is the method: as §1
For assay [3], the system named is Escherichia coli EC14. Description: standard agar-dilution MIC assay. As to the method:
as §1

The test system of assay [4] is Pseudomonas aeruginosa X239. Description: standard agar-dilution MIC assay. Conditions: Pseudomonas aeruginosa, X239; agar-dilution; read-out: MIC. Here is the method:
as §1

Assay [5] relates to Haemophilus influenzae 76. Briefly: standard agar-dilution MIC assay. Conditions: Haemophilus influenzae, 76. Here is the method: as §1
Assay [6] has as its system Klebsiella pneumoniae X68. Description: standard agar-dilution MIC assay. The following applies: Klebsiella pneumoniae, X68; agar-dilution; read-out: MIC. Here is the method: as §1
Assay [7] deals with Staphylococcus epidermidis 222. Briefly: standard agar-dilution MIC assay. The following applies: Staphylococcus epidermidis, 222. As to the method: as §1
Assay [8] deals with Streptococcus Group D 2041. Briefly: standard agar-dilution MIC assay. The following applies: GROUPD2041. As to the method:
as §1

In assay [9] the test system is Haemophilus influenzae C.L. Description: standard agar-dilution MIC assay. Conditions: Haemophilus influenzae. Here is the method: as §1
The test system of assay [10] is Staphylococcus aureus X400. Description: standard agar-dilution MIC assay. Conditions: Staphylococcus aureus, X400. As to the method: as §1
In assay [11] the test system is Streptococcus Group D X66. Description: standard agar-dilution MIC assay. The following applies: read-out: MIC. Here is the method:
as §1

For assay [12], the system named is Staphylococcus aureus V41. Description: standard agar-dilution MIC assay. The following applies: Staphylococcus aureus, V41. As to the method:
as §1

Assay [13] relates to Staphylococcus aureus S13E. Description: microbe, parasite or virus in culture. The following applies: Staphylococcus aureus, S13E. Here is the method: as §1
Assay [14] deals with Streptococcus pneumoniae Park I. Briefly: microbe, parasite or virus in culture. Conditions: Streptococcus pneumoniae. Here is the method:
as §1

Assay [15] relates to Staphylococcus epidermidis EPI1. Briefly: standard agar-dilution MIC assay. Conditions: Staphylococcus epidermidis, EPI1. Here is the method: as §1
The mark [16] stands for this setting: agar-dilution, Ampicillin-resistant strain, read-out: MIC.
Setting [17] is: agar-dilution, Ampicillin-sensitive strain, read-out: MIC.

Each structure is given as a SMILES string. In brackets after ≈: the same amount, converted by molar mass. Like-named read-outs stand apart in the source and are kept apart here. A value given as a limit tells only on which side of the number the result lay.

As for `CCC1OC(=O)CC(O)C(C)C(OC2OC(C)C(O)C(N(C)C)C2O)C(CCN2C[C@H](C)C[C@H](C)C2)CC(C)C(=O)C=CC(C)=CC1COC1OC(C)C=CC1OC` (stereo partly drawn) [Compound 45, 3",4"-Di(dehydrodeoxy)-20-deoxo-20-(cis-3,5-dimethylpiperidin-1-yl)-lactenocin], the MIC was 0.06 µg/mL (≈ 0.0731 µM) in [1]; 0.12 µg/mL (≈ 0.146 µM) in [2] (agar-dilution, read-out: MIC); 64 µg/mL (≈ 77.9 µM) in assay [3]; greater than 128 µg/mL in assay [4]; 1 µg/mL (≈ 1.22 µM) in assay [5]; 128 µg/mL (≈ 156 µM) in assay [6]. The MIC in [7] (agar-dilution, read-out: MIC) worked out at 0.12 µg/mL (≈ 0.146 µM); in assay [8], 0.5 µg/mL (≈ 0.609 µM); in [9], 1 µg/mL (≈ 1.22 µM); in assay [10] (agar-dilution, Methicillin-resistant strain, read-out: MIC), 0.06 µg/mL (≈ 0.0731 µM); in assay [11], 0.25 µg/mL (≈ 0.304 µM); in [12] (agar-dilution, Penicillin-resistant strain, read-out: MIC), 0.12 µg/mL (≈ 0.146 µM). The MIC in assay [13] and in assay [14] was 0.06 µg/mL (≈ 0.0731 µM) in each case.

Consider `CCC1OC(=O)CC(O)C(C)C(OC2OC(C)C(OC(C)=O)C(N(C)C)C2OC(C)=O)C(CCOc2ccccc2)CC(C)C(=O)C=CC(C)=CC1COC1OC(C)C=CC1OC` (centres unmarked) [Compound 42, 2',4'-Di-O-acetyl-3",4"-di(dehydrodeoxy)-20-DH-20-O-phenyl-lactenocin], for which the MIC in [1] is 1 µg/mL (≈ 1.13 µM); in assay [2], 1 µg/mL (≈ 1.13 µM); in assay [3] (agar-dilution, read-out: MIC), greater than 128 µg/mL; in assay [4], greater than 128 µg/mL; in assay [5] (setting [16]), greater than 128 µg/mL; in [6], greater than 128 µg/mL. Further, the MIC in [7] is 0.5 µg/mL (≈ 0.564 µM); in assay [8], 4 µg/mL (≈ 4.51 µM); in assay [9] (setting [17]), greater than 128 µg/mL; in [15] it was 1 µg/mL (≈ 1.13 µM); in [10] it was 0.5 µg/mL (≈ 0.564 µM); in assay [11] it was 4 µg/mL (≈ 4.51 µM). In addition, the MIC in assay [12] was 0.5 µg/mL (≈ 0.564 µM); in assay [13] it was 4 µg/mL (≈ 4.51 µM); in assay [14], 1 µg/mL (≈ 1.13 µM).

For `CCC1OC(=O)CC(O)C(C)C(OC2OC(C)C(O)C(N(C)C)C2O)C(CCOc2ccccc2)CC(C)C(=O)C=CC(C)=CC1COC1OC(C)C(OC(C)=O)C(OC(C)=O)C1OC` (centres unmarked) [Compound 41, 3",4"-Di-O-acetyl-20-DH-20-O-phenyl-lactenocin], the MIC in [1] is 16 µg/mL (≈ 17.4 µM); in assay [2] it was 16 µg/mL (≈ 17.4 µM); in assay [3] (agar-dilution, read-out: MIC), greater than 128 µg/mL; in [4] it was greater than 128 µg/mL; in assay [5] (setting [16]) it was greater than 128 µg/mL; in assay [6], greater than 128 µg/mL. The MIC in assay [7] is 8 µg/mL (≈ 8.69 µM); in [8] (agar-dilution, read-out: MIC), 128 µg/mL (≈ 139 µM); in assay [9] (setting [17]), greater than 128 µg/mL; in assay [15], 16 µg/mL (≈ 17.4 µM); in assay [10] it was 16 µg/mL (≈ 17.4 µM); in assay [11], 64 µg/mL (≈ 69.6 µM). In addition, the MIC in assay [12], in assay [13] and in assay [14] was 16 µg/mL (≈ 17.4 µM) each time.
